{"source": "PubChem BioAssay (NCI)", "assay_in_all_cases": "NCI-60 cell line screen, 48 h", "key": {"CCRF-CEM leukemia": {"system": "CCRF-CEM leukemia"}, "786-0 renal": {"system": "786-0 renal"}, "UACC-257 melanoma": {"system": "UACC-257 melanoma"}, "A498 renal": {"system": "A498 renal"}, "MDA-MB-231 breast": {"system": "MDA-MB-231 breast"}, "HL-60(TB) leukemia": {"system": "HL-60(TB) leukemia"}, "HCC-2998 colon": {"system": "HCC-2998 colon"}, "MDA-MB-435": {"system": "MDA-MB-435"}, "COLO 205 colon": {"system": "COLO 205 colon"}, "SK-MEL-5 melanoma": {"system": "SK-MEL-5 melanoma"}, "SK-MEL-28 melanoma": {"system": "SK-MEL-28 melanoma"}, "K-562 leukemia": {"system": "K-562 leukemia"}, "RPMI-8226 leukemia": {"system": "RPMI-8226 leukemia"}, "SK-MEL-2 melanoma": {"system": "SK-MEL-2 melanoma"}, "MCF7 breast": {"system": "MCF7 breast"}, "NCI-H460 lung": {"system": "NCI-H460 lung"}, "SF-539 CNS": {"system": "SF-539 CNS"}, "NCI-H522 lung": {"system": "NCI-H522 lung"}, "MOLT-4 leukemia": {"system": "MOLT-4 leukemia"}, "SNB-75 CNS": {"system": "SNB-75 CNS"}, "U251 CNS": {"system": "U251 CNS"}, "M14 melanoma": {"system": "M14 melanoma"}, "SR leukemia": {"system": "SR leukemia"}, "NCI/ADR-RES ovarian": {"system": "NCI/ADR-RES ovarian"}, "RXF 393 renal": {"system": "RXF 393 renal"}, "HOP-92 NSCLC": {"system": "HOP-92 NSCLC"}, "HCT-116 colon": {"system": "HCT-116 colon"}, "TK-10 renal": {"system": "TK-10 renal"}, "MALME-3M melanoma": {"system": "MALME-3M melanoma"}, "SW-620 colon": {"system": "SW-620 colon"}, "LOX IMVI melanoma": {"system": "LOX IMVI melanoma"}, "UACC-62 melanoma": {"system": "UACC-62 melanoma"}, "UO-31 renal": {"system": "UO-31 renal"}}, "note": "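Briefly, cells in 96-well plates were exposed to five compound concentrations for 48 h, and endpoints were estimated by linear interpolation. The concentration for 50% growth inhibition is given as GI50. At the TGI there is no net growth.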", "data": [{"smiles": "CC1COc2c(N3CCN(C)CC3)c(F)cc3c(=O)c(C(=O)N/N=C/c4cc[nH]c4)cn1c23", "note": "(stereo unspecified)", "values": [{"measurement": "GI50", "setting": "CCRF-CEM leukemia", "result": 959, "unit": "nM"}, {"measurement": "TGI", "setting": "CCRF-CEM leukemia", "result": 2790, "unit": "nM"}, {"measurement": "GI50", "setting": "786-0 renal", "result": 1420, "unit": "nM"}, {"measurement": "TGI", "setting": "786-0 renal", "result": 2850, "unit": "nM"}, {"measurement": "GI50", "setting": "UACC-257 melanoma", "result": 1640, "unit": "nM"}, {"measurement": "TGI", "setting": "UACC-257 melanoma", "result": 3120, "unit": "nM"}, {"measurement": "GI50", "setting": "A498 renal", "result": 2220, "unit": "nM"}, {"measurement": "TGI", "setting": "A498 renal", "result": "> 100000", "unit": "nM"}, {"measurement": "GI50", "setting": "MDA-MB-231 breast", "result": 1480, "unit": "nM"}, {"measurement": "TGI", "setting": "MDA-MB-231 breast", "result": 3000, "unit": "nM"}, {"measurement": "GI50", "setting": "HL-60(TB) leukemia", "result": 674, "unit": "nM"}, {"measurement": "TGI", "setting": "HL-60(TB) leukemia", "result": 2590, "unit": "nM"}, {"measurement": "GI50", "setting": "HCC-2998 colon", "result": 518, "unit": "nM"}, {"measurement": "TGI", "setting": "HCC-2998 colon", "result": 1890, "unit": "nM"}, {"measurement": "GI50", "setting": "MDA-MB-435", "result": 1520, "unit": "nM"}, {"measurement": "TGI", "setting": "MDA-MB-435", "result": 2910, "unit": "nM"}, {"measurement": "GI50", "setting": "COLO 205 colon", "result": 1270, "unit": "nM"}, {"measurement": "TGI", "setting": "COLO 205 colon", "result": 2600, "unit": "nM"}, {"measurement": "GI50", "setting": "SK-MEL-5 melanoma", "result": 1400, "unit": "nM"}, {"measurement": "TGI", "setting": "SK-MEL-5 melanoma", "result": 2710, "unit": "nM"}, {"measurement": "GI50", "setting": "SK-MEL-28 melanoma", "result": 1470, "unit": "nM"}, {"measurement": "TGI", "setting": "SK-MEL-28 melanoma", "result": 2830, "unit": "nM"}, {"measurement": "GI50", "setting": "K-562 leukemia", "result": 699, "unit": "nM"}, {"measurement": "TGI", "setting": "K-562 leukemia", "result": 2350, "unit": "nM"}, {"measurement": "GI50", "setting": "RPMI-8226 leukemia", "result": 2190, "unit": "nM"}, {"measurement": "TGI", "setting": "RPMI-8226 leukemia", "result": 4580, "unit": "nM"}, {"measurement": "GI50", "setting": "SK-MEL-2 melanoma", "result": 1570, "unit": "nM"}, {"measurement": "TGI", "setting": "SK-MEL-2 melanoma", "result": 3010, "unit": "nM"}, {"measurement": "GI50", "setting": "MCF7 breast", "result": 417, "unit": "nM"}, {"measurement": "TGI", "setting": "MCF7 breast", "result": 1650, "unit": "nM"}, {"measurement": "GI50", "setting": "NCI-H460 lung", "result": 767, "unit": "nM"}, {"measurement": "TGI", "setting": "NCI-H460 lung", "result": 2080, "unit": "nM"}, {"measurement": "GI50", "setting": "SF-539 CNS", "result": 1280, "unit": "nM"}, {"measurement": "TGI", "setting": "SF-539 CNS", "result": 2610, "unit": "nM"}, {"measurement": "GI50", "setting": "NCI-H522 lung", "result": 1240, "unit": "nM"}, {"measurement": "TGI", "setting": "NCI-H522 lung", "result": 2640, "unit": "nM"}, {"measurement": "GI50", "setting": "MOLT-4 leukemia", "result": 502, "unit": "nM"}, {"measurement": "TGI", "setting": "MOLT-4 leukemia", "result": 2100, "unit": "nM"}, {"measurement": "GI50", "setting": "SNB-75 CNS", "result": 1480, "unit": "nM"}, {"measurement": "TGI", "setting": "SNB-75 CNS", "result": 3470, "unit": "nM"}, {"measurement": "GI50", "setting": "U251 CNS", "result": 614, "unit": "nM"}, {"measurement": "TGI", "setting": "U251 CNS", "result": 1980, "unit": "nM"}, {"measurement": "GI50", "setting": "M14 melanoma", "result": 1670, "unit": "nM"}, {"measurement": "TGI", "setting": "M14 melanoma", "result": 3120, "unit": "nM"}, {"measurement": "GI50", "setting": "SR leukemia", "result": 841, "unit": "nM"}, {"measurement": "TGI", "setting": "SR leukemia", "result": 3160, "unit": "nM"}, {"measurement": "GI50", "setting": "NCI/ADR-RES ovarian", "result": "> 100000", "unit": "nM"}, {"measurement": "TGI", "setting": "NCI/ADR-RES ovarian", "result": "> 100000", "unit": "nM"}, {"measurement": "GI50", "setting": "RXF 393 renal", "result": 1060, "unit": "nM"}, {"measurement": "TGI", "setting": "RXF 393 renal", "result": 2350, "unit": "nM"}, {"measurement": "GI50", "setting": "HOP-92 NSCLC", "result": 497, "unit": "nM"}, {"measurement": "TGI", "setting": "HOP-92 NSCLC", "result": 36000, "unit": "nM"}, {"measurement": "GI50", "setting": "HCT-116 colon", "result": 712, "unit": "nM"}, {"measurement": "TGI", "setting": "HCT-116 colon", "result": 2000, "unit": "nM"}, {"measurement": "GI50", "setting": "TK-10 renal", "result": 5400, "unit": "nM"}, {"measurement": "TGI", "setting": "TK-10 renal", "result": 96100, "unit": "nM"}, {"measurement": "GI50", "setting": "MALME-3M melanoma", "result": 1040, "unit": "nM"}, {"measurement": "TGI", "setting": "MALME-3M melanoma", "result": 2570, "unit": "nM"}, {"measurement": "GI50", "setting": "SW-620 colon", "result": 1300, "unit": "nM"}, {"measurement": "TGI", "setting": "SW-620 colon", "result": 2620, "unit": "nM"}, {"measurement": "GI50", "setting": "LOX IMVI melanoma", "result": 715, "unit": "nM"}, {"measurement": "TGI", "setting": "LOX IMVI melanoma", "result": 2070, "unit": "nM"}, {"measurement": "GI50", "setting": "UACC-62 melanoma", "result": 1700, "unit": "nM"}, {"measurement": "TGI", "setting": "UACC-62 melanoma", "result": 3160, "unit": "nM"}, {"measurement": "GI50", "setting": "UO-31 renal", "result": 2710, "unit": "nM"}, {"measurement": "TGI", "setting": "UO-31 renal", "result": "> 100000", "unit": "nM"}]}]}
